# Reference: a melting point compilation (Tetko et al.; mined from patent text by program, amines drawn as free bases though some values may be those of a salt)
row,melting point,Structure (SMILES)
1,92 °C,CC(c1ncnc(Cl)c1F)C(O)(Cn1cncn1)c1ccc(F)cc1F (configuration not stated)
2,232 to 234 °C,O=[N+]([O-])c1ccc(NN=C(c2ccccc2)c2ccccc2)c([N+](=O)[O-])c1
3,97 to 98 °C,Cc1cc(C)c(/C=C/[C@@H](O)C[C@@H](O)CC(=O)OCOC(=O)C(C)(C)C)c(-c2ccc(F)c(C)c2)c1
4,94.3 °C,CCOCCn1c(NC2CCN(CCO)CC2)nc2cccnc21
5,162 to 163 °C,Cc1cccc(C2=NN=C(c3ccccc3Cc3ccccc3)NN2)c1
6,65 to 66 °C,C(#Cc1ccccc1)CCN1CCC(c2ccccc2)CC1
7,181 to 183 °C,CC(C(=O)O)c1ccc2c(c1)CCc1cccnc1S2 (configuration not stated)
8,228 to 230 °C,N#Cc1cc2cc(Br)ccc2nc1Cl
9,102 to 108 °C,c1cc(C2=NOC(C3CC3)C2)ccn1 (configuration not stated)
10,118 °C,CCOC(=O)c1c(Cl)c2cc(F)ccc2n(Cc2ccccc2)c1=O
11,214 to 216 °C,CCNS(=O)(=O)c1ccc(-c2cnc3[nH]c(CCc4cc(OC)ccn4)nc3c2)cc1
12,160 °C,OC1(c2ccc(Cl)cc2)CCN(CCCn2cnc3ccccc32)CC1
13,51 to 53 °C,COc1cccc(C(F)(F)F)c1O
14,282 to 284 °C,CCCCC1Cc2c(c3cccnc3n(-c3ccc(C)cc3)c2=O)O1 (configuration not stated)
15,148 to 149 °C,CC(=O)Nc1c(F)cc(F)cc1SCC#N
16,119 to 120 °C,CS(=O)c1cccc2c3c(n(Cc4ccc(Cl)cc4)c12)C(CC(=O)O)CCC3 (configuration not stated)
17,143 to 145 °C,CCN1C=C(C(=O)O)C(=O)CC1c1cccc(Cl)c1 (configuration not stated)
18,140 to 142 °C,CCCN=C(N)Nc1ccnc(CCCCc2ncc(CC)c(O)n2)n1
19,64 to 65 °C,Cc1cc(N(C)C)ccc1C=Nc1cc(Cl)c(N=CN(C)C)c(Cl)c1
20,72 to 76 °C,CN1C(=O)CCC1CN1C(=O)C2(COc3cc4c(cc32)CCO4)c2ccccc21 (configuration not stated)
21,253 to 255 °C,CC(=O)Nc1nn(C)c2c1sc1cc(C)ccc12
22,80 to 88 °C,O=C(NC(c1ccccc1)c1ccccc1)NS(=O)(=O)Cl
23,102 °C,CCCCCCC(O)CCCCCCCCCCC(=O)NCCNCCO (configuration not stated)
24,178 to 183 °C,CC(C)C(C(=O)O)N1CC(N)C1=O (configuration not stated)
25,109 to 111 °C,CCCOCc1nc(C(C)(C)O)c(C(=O)O)n1Cc1ccc(-c2ccccc2C(=O)O)cc1

row,melting point,Structure (SMILES)
1,205 to 207 °C,CCOC(=O)C1Cc2c([nH]c3ccccc23)CN1C(=S)SCc1cccs1 (configuration not stated)
2,175 to 177 °C,Cc1ccc(Cc2cnc(NCCCNc3ccc(C#N)cn3)[nH]c2=O)cn1
3,150 to 153 °C,N#Cc1c(Nc2c(F)cccc2F)cccc1Oc1ccccc1
4,189 to 191 °C,Cc1cc(S(=O)(=O)c2ccc(N)cc2)cc(Br)n1
5,55 to 59 °C,O=C(SC1CCN(C(C(=O)C2CC2)c2ccccc2F)CC1)c1ccccc1 (configuration not stated)
6,57 to 60 °C,O=C(O)[C@H](Cc1ccccc1)NC(=O)N1CCOCC1
7,80 to 81 °C,COCCSC(F)(F)C(O)(Cn1cncn1)c1ccc(F)cc1F (configuration not stated)
8,156 to 158 °C,COc1ccccc1N1CCN(C2CCN(c3csc4ccccc34)CC2)CC1
9,188 to 190 °C,CCS(=O)(=O)N(C)C1c2cc(F)c(Cl)cc2OC(C)(C)C1O (configuration not stated)
10,140 to 142 °C,CC(C)(C)NC(=O)C1CCN(C(=O)CCl)CC1
11,186 to 187 °C,COc1ccc(CCS(N)(=O)=S)cc1 (configuration not stated)
12,134 to 136 °C,CSc1nc(NC2CCCCC2)c2nsnc2n1
13,62 to 64 °C,CCn1ncc2c1ncc1c(OCCCN(C)C)nc3cc(C)nn3c12
14,138 to 140 °C,Cc1ccc(S(=O)(=O)OCC2COc3ccc([N+](=O)[O-])c(C=CC=O)c3O2)cc1 (configuration not stated)
15,68 °C,CCSC(=O)N(C=C(C#N)C#N)c1cccc(Cl)c1
16,171 to 173 °C,COC(=O)C(C)(C)Cc1c(SC(C)(C)C)c2cc(OCc3ccc4cc(F)c(F)cc4n3)ccc2n1Cc1ccc(Cl)cc1
17,129 to 131 °C,COc1cc(N)cc([N+](=O)[O-])c1OC
18,78 to 80 °C,CC(C)C(=O)CNC(=O)c1ccccc1
19,190 to 191 °C,CC(C)(C)c1cc(-c2nn(C3(C)COC(=O)O3)c3ncccc23)cc(C(C)(C)C)c1O (configuration not stated)
20,141 to 142 °C,O=CC(=Cc1ccccc1F)C(C=O)=Cc1ccccc1F
21,153 to 160 °C,C/C=C/C(=O)Nc1ccc2ncnc(Nc3cccc(Br)c3)c2c1
22,201 to 202 °C,Cn1nc(Cl)cc(Nc2ccccn2)c1=O
23,191 °C,Cn1ncnc1COc1nn2c(-c3ccc(F)cc3)nncc2c1-c1ccccc1F
24,110 to 111 °C,O=C1c2ccccc2C(=O)N1CCCCOc1ccc(-c2ccccc2)cc1
25,149 to 150 °C,Cc1cccc(C(=O)NNC(=O)c2ccccc2Cc2ccccc2)c1

row,melting point,Structure (SMILES)
1,118 to 120 °C,Cc1oc(-c2ccccc2)nc1CCOc1ccc(CC(F)(C(=O)NS(C)(=O)=O)c2ccccc2)cc1 (configuration not stated)
2,187 to 191 °C,CC1=CC(c2cccc(Br)c2)C2=C(CCCC2=O)N1 (configuration not stated)
3,129 to 130 °C,CC(C)(C)C1=C(c2cc3cc(O)ccc3o2)OCC1(C)C
4,100 °C,COC(=O)CCCSc1c2c(=O)n(C)c(=O)n(CC(C)C)c2nn1Cc1cccc2ccccc12
5,117 to 118 °C,CCCOc1ccc(Br)cc1-c1nc2c(CCC)nn(C)c2c(=O)[nH]1
6,94 to 95 °C,COC(=O)C(C(C)C)S(=O)(=O)Nc1nc(OC)cc(OC)n1 (configuration not stated)
7,67 to 69 °C,CCCCCCCCCCCCCCOc1ccccc1C(=O)Cc1nnn[nH]1
8,174 to 175 °C,Cn1ncsc1=NC(=S)Nc1ccccc1
9,167 °C,COc1ncccc1-c1cncc(OC2SCC(OC(C)=O)C(OC(C)=O)C2OC(C)=O)c1 (configuration not stated)
10,154 to 157 °C,S=C1CCNc2ccccc2N1
11,113 to 116 °C,Cc1c2c(c(C)n1-c1ccccc1)C(C)(C)OC2(C)C
12,199 to 200 °C,CC#COc1ccc2c(=O)cc(-c3ccccc3)oc2c1
13,102 to 104 °C,Cc1ccc(C)c(S(=O)(=O)Nc2onc(C)c2Br)c1
14,220 to 230 °C,O=C1c2ccc(Cl)cc2C(O)N1c1ccc2ccc(Cl)nc2n1 (configuration not stated)
15,194 to 199 °C,Fc1ccc(Nc2ncnc3cnc(NC4CCCNC4)nc23)cc1Cl (configuration not stated)
16,172 to 174 °C,O=C(Nc1ccc(-n2nc(-c3ccoc3)cc2OC(F)F)cc1)c1ccncc1F
17,> 220 °C,O=[N+]([O-])c1cccc(-c2ccnc3[nH]c4ccccc4c23)c1
18,232 to 234 °C,Nc1nc(N)c(C(=O)n2ccnc2)nc1Cl
19,105 to 108 °C,Cc1cccc(N2C(=O)C(=CN(C)C)c3ccccc32)c1
20,138 °C,Cc1cc(C)n(C(=O)CNS(=O)(=O)c2ccc(C3CCCCC3)cc2)n1
21,108 to 110 °C,CC1=C(C(=O)O)CCC(C)(C)C1
22,156 to 157 °C,CN1CCc2c(-c3ccc(F)cc3)c(C(=O)N(C)Cc3cc(C(F)(F)F)cc(C(F)(F)F)c3)n(C)c(=O)c2C1
23,172 to 174 °C,CN1C(=O)CC[C@]2(C)c3ccc(Oc4ccc5ccccc5n4)cc3CC[C@@H]12
24,176 to 177 °C,CCOC(=O)c1c(Cn2cncn2)nc2cc(OC)c(OC)cc2c1-c1ccc(OC)c(OC)c1
25,135 to 136 °C,COC(=O)C=Cc1c(C(=O)OC)[nH]c2c(C)ccc(C)c12

row,melting point,Structure (SMILES)
1,> 300 °C,CNC(=O)Nc1ccc(C(=O)O)cc1
2,93 to 95 °C,O=C(c1ccc(-c2cnc3c(c2)N(Cc2c(F)ccc(F)c2Cl)CCN3)cc1)N1CCC(N2CCCC2)CC1
3,151 to 153 °C,COc1ccc(C(=O)N2CCN(CC(=O)N3CC=C(c4cccc(C(F)(F)F)c4)n4ncc(C#N)c43)CC2)cc1
4,155 °C,COc1cc2c(cc1OC)CN(CCCSc1ccc(NC(=O)c3cccc4c(=O)c5cccc(C)c5[nH]c34)cc1)CC2
5,91 to 93 °C,CCOC(=O)CCCCC(NS(=O)(=O)c1ccc(F)cc1)c1ccc2ccccc2c1 (configuration not stated)
6,178 to 180 °C,CCn1cc(C(=O)NCCc2ccccc2)c(=O)c2cnc(N3CCCC3)nc21
7,121 to 122 °C,COC(=O)c1cc(NC(C)C)c2cc(Cc3ccc(F)cc3)cnc2c1O
8,92 to 93 °C,CC(C)NC(=S)n1ccc2ccc(Cl)cc21
9,110 to 112 °C,O=S(=O)(Nc1ccc2c(OCc3cccc(-c4ccc(F)cc4)c3)cccc2c1)C(F)(F)F
10,270 to 272 °C,Cc1cc(C)cc(-c2nc(NC(=O)C(C)C)sc2-c2ccncc2)c1
11,134 to 135 °C,OCC1(O)CSC(=S)N1c1ccccn1 (configuration not stated)
12,168 °C,COCCC(=O)Nc1ccc(Cl)c(C2(C)C(=O)N(Cc3ccc(OC)cc3OC)c3ccc(Cl)cc32)c1 (configuration not stated)
13,104 to 107 °C,CCCCCCCCCCCCCCCCNc1ccc(C(=O)O)cc1
14,196 to 197 °C,CC(C)NCC(=O)Nc1cccc2c1C(=O)c1c(NC(=O)CNC(C)C)cccc1C2=O
15,111 to 112 °C,CC1(C)Oc2ccc(C#N)cc2[C@@H](Br)[C@@H]1O (relative stereo)
16,201 to 202 °C,COc1cc(C#N)cc(-c2ccc3c(c2)C(C)(C)OC(=S)N3)c1
17,179 to 181 °C,CCOC(=O)c1ncc2[nH]c3cccc(O)c3c2c1COC
18,133 to 135 °C,CC(C)OC(=O)C(C)n1c(C(F)(F)F)nc2cc(F)c(-n3c(=O)cc(C(F)(F)F)n(C)c3=O)cc21 (configuration not stated)
19,192 to 195 °C,CCc1cc(OC)c(S(C)(=O)=O)cc1C(=O)N=C(N)N
20,164 to 165 °C,Cc1cn(C2CC(F)C(CO)O2)c(=S)[nH]c1=S (configuration not stated)
21,95 to 96 °C,CCCCC1Sc2c(cc(OC)c(Cl)c2Cl)C1O (configuration not stated)
22,105 to 108 °C,CCOC(=O)c1nc(O)sc1C(=O)CBr
23,174 to 176 °C,O=C(Oc1ccc(Cl)cn1)c1cc2ccccc2sc1=O
24,137 °C,COc1cc(CN2C(=O)CCC2=O)cc(OC)c1-c1ccc(C[C@H](NC(=O)c2c(Cl)cccc2Cl)C(=O)O)cc1
25,99 to 102 °C,CN(C(=O)c1ccc(-c2ccccc2)cc1)c1ccccc1

row,Structure (SMILES),melting point
1,[N-]=[N+]=NC[C@H]1OC(O)[C@H](O)[C@@H](O)[C@@H]1O (some centres not stated),128 to 130 °C
2,O=C(O)C(O)P(=O)(O)O (configuration not stated),153 to 154 °C
